The source made the active and inactive calls.
Assays:
[1] = biological target: T1, Tyrosine-protein phosphatase non-receptor type 22 (Homo sapiens, UniProt Q9Y2R2); assay: SAR LYP1 Fluorescent Assay using pCAP substrate for In Vitro dose response studies - Set 2. [Related pubchem assays (depositor defined):AID1779, AID1784, AID2135, AID449727]; type: functional
T1 sequence (Q9Y2R2 whole entry): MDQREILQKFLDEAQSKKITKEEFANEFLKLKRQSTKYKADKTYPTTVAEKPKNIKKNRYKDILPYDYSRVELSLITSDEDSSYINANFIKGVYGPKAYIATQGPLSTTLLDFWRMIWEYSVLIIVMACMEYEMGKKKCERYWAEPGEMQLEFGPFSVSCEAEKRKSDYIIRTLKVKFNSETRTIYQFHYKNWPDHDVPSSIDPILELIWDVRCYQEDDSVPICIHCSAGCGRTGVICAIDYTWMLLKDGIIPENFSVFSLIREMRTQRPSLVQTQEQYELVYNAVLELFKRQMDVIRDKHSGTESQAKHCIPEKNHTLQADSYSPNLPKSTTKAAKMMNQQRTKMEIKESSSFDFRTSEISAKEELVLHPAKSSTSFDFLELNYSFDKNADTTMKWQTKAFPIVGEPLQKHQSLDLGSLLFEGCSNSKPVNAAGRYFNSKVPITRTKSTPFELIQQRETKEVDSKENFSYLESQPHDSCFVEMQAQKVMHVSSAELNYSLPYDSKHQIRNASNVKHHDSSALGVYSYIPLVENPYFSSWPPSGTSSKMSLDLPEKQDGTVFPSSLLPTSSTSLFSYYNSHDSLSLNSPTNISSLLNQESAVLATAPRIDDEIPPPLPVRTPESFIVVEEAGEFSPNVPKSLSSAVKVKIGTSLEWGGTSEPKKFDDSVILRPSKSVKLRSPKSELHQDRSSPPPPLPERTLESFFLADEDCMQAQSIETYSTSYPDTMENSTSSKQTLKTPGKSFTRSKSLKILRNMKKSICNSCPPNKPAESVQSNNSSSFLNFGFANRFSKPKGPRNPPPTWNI

[2] = biological target: T2, Tyrosine-protein phosphatase non-receptor type 12 (Homo sapiens, UniProt Q05209); assay: SAR Selectivity Analysis of small molecule inhibitors of PEST using pCAP in a fluorescence assay. [Related pubchem assays (depositor defined):AID1779, AID1784, AID2135]; type: functional
T2 sequence (Q05209 whole entry): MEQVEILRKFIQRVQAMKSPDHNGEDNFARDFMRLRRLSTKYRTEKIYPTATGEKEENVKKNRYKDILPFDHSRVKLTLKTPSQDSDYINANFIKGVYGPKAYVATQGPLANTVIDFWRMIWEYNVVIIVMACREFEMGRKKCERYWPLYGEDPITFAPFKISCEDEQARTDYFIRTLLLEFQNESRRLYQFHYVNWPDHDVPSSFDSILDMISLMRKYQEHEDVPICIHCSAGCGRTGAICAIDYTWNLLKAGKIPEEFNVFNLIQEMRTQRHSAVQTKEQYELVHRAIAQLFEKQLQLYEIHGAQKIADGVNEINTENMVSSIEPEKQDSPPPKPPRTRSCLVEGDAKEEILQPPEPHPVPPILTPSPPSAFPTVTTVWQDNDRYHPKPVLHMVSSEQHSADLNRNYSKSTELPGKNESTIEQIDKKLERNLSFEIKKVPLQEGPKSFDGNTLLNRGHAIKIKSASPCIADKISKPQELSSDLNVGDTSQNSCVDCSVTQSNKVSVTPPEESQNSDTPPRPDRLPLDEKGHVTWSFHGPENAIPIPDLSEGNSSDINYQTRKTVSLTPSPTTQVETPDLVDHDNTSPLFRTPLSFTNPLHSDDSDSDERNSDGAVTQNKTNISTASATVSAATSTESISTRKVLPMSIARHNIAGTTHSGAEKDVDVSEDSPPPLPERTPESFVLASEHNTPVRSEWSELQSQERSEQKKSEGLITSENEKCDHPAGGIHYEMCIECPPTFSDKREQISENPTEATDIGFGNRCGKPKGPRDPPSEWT

[3] = biological target: T1, Tyrosine-protein phosphatase non-receptor type 22; assay: SAR LYP1 Fluorescent Assay using OMFP substrate for In Vitro dose response studies - Set 3. [Related pubchem assays (depositor defined):AID1779, AID1784, AID2140, AID2686]; type: functional
[4] = biological target: T3, Tyrosine-protein phosphatase non-receptor type 7 (Homo sapiens, UniProt P35236); assay: HePTP (PTPN7) phosphatase inhibitor potency, SAR follow-up, biochemical, set 2 (AID 449736); type: functional
T3 sequence (P35236 whole entry): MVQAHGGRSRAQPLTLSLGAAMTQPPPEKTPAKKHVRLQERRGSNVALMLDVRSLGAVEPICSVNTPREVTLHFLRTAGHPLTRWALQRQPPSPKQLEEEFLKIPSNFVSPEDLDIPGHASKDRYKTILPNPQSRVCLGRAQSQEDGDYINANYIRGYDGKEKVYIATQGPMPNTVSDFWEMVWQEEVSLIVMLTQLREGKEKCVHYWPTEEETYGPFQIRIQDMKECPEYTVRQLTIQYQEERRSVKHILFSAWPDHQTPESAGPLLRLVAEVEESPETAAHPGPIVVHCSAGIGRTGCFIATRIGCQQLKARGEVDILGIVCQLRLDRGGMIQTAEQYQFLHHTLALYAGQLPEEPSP

[5] = biological target: T1, Tyrosine-protein phosphatase non-receptor type 22; assay: LYP (PTPN22) phosphatase inhibitor potency, SAR follow-up, biochemical, pCAP fluorogenic substrate, fluorescence, set 3 (AID 449727); type: functional
[6] = biological target: T1, Tyrosine-protein phosphatase non-receptor type 22; assay: PubChem AID 2135
[7] = biological target: T1, Tyrosine-protein phosphatase non-receptor type 22; assay: PubChem AID 2140
[8] = biological target: T1, Tyrosine-protein phosphatase non-receptor type 22; assay: SAR LYP1 Fluorescent Assay using OMFP substrate for In Vitro dose response studies - Set 2. [Related pubchem assays (depositor defined):AID1779, AID1784, AID2140, AID449726, AID488869]; type: functional
[9] = biological target: T4, Mannose-6-phosphate isomerase (Homo sapiens, UniProt P34949); assay: PMI enzyme inhibitors, confirmation, biochemical, fluorescence intensity (AID 1535)
T4 sequence (P34949 whole entry): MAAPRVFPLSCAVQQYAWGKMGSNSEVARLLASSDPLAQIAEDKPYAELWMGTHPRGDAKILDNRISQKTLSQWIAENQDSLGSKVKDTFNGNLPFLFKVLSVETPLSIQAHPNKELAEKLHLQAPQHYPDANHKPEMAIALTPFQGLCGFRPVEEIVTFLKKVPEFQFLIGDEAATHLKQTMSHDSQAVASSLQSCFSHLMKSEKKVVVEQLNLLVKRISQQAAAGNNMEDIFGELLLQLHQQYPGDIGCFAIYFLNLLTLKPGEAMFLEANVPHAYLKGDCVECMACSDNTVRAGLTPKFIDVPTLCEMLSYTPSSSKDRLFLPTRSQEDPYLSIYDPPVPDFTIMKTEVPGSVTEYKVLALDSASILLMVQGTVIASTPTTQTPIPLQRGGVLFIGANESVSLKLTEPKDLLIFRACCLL

[10] = biological target: Phosphomannomutase 2 (Homo sapiens, UniProt O15305); assay: Counter screen SAR assay for PMM2 inhibitors via a fluorescence intensity assay. [Related pubchem assays (depositor defined):AID1545, AID1574]
Phosphomannomutase 2, sequence (O15305 whole entry): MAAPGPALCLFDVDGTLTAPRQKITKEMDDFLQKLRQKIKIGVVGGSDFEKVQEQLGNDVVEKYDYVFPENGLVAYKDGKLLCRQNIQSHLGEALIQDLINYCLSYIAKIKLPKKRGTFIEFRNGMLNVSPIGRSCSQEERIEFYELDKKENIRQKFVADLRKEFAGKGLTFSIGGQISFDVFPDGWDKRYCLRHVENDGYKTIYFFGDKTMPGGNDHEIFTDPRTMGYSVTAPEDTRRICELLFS

[11] = inhibitors of firefly luciferase expression or activity, dose response, H4 neuroglioma cells, luminescence (AID 1990); type: functional, cell-based
[12] = Luminescence Cell-Based Dose Response HTS to Identify Inhibitors of 5'UTR Stem-Loop Driven Prion Protein mRNA Translation in H4 Neuroglioblastoma Cells. [Related pubchem assays: 1827 (Project Summary), 1813 (Primary HTS)]; type: functional
[13] = inhibitors of SNCA 5'UTR-driven reporter translation, confirmation, H4 neuroglioma cells, luminescence (AID 1988); type: functional, cell-based
[14] = growth suppression of PTEN-null colon cells, dose response, cell-based, HCT116 PTEN knockout (AID 1047); type: functional;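 also: HCT116 colon tumor cells with PTEN knocked out; cells exposed to compound for 60 hours before readout; potency for loss of cell viability measured by luminescence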
[15] = growth suppression of beta-catenin-knockout colon cells, dose response, cell-based, HCT116, human colon tumor (AID 1045); type: functional;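 also: HCT116 colon tumor cells with beta catenin knocked out; cells exposed to compound for 60 hours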
[16] = Intein inhibitors as potential Tuberculosis drugs, a cytotoxicity screen. [Related pubchem assays (depositor defined):AID2221, AID2223, AID434968, AID435010, AID449749, AID449750, AID489010]; type: functional
[17] = biological target: T5, Replicative DNA helicase DnaB (Mycobacterium tuberculosis, UniProt P9WMR3); assay: DnaB intein splicing inhibitors, dose response, biochemical, cell-free fluorescence (AID 449749); type: functional
T5 sequence (P9WMR3 whole entry): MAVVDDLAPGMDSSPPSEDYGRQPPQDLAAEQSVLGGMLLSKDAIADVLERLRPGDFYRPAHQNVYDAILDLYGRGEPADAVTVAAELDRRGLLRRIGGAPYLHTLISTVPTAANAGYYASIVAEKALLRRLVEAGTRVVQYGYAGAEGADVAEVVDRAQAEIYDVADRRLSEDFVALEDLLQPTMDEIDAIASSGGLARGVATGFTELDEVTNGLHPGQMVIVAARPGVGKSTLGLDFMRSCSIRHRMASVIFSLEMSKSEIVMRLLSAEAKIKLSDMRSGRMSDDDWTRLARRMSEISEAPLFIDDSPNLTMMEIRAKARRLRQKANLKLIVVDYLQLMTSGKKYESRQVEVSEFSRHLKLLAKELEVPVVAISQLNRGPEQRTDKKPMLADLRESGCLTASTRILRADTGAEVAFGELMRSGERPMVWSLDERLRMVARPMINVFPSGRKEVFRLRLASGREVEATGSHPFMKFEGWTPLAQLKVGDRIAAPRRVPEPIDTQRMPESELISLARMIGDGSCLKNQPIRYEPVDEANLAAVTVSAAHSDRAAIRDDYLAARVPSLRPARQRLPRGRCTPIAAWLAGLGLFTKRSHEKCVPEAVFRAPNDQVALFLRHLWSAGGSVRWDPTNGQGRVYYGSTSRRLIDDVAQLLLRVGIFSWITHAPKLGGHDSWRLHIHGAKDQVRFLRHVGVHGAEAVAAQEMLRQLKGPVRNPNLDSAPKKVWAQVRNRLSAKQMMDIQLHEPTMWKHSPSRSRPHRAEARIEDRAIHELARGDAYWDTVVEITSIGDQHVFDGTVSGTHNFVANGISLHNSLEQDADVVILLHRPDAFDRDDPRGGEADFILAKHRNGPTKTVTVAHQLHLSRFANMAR

[18] = biological target: T6, Protein RecA (Mycobacterium tuberculosis, UniProt P9WHJ3); assay: Fluorescence Cell-Free Homogeneous Dose Retest to Identify Inhibitors of RecA-Intein Splicing Activity. [Related pubchem assays (depositor defined):AID2097, AID2223, AID489010, AID492950]; type: functional
T6 sequence (P9WHJ3 whole entry): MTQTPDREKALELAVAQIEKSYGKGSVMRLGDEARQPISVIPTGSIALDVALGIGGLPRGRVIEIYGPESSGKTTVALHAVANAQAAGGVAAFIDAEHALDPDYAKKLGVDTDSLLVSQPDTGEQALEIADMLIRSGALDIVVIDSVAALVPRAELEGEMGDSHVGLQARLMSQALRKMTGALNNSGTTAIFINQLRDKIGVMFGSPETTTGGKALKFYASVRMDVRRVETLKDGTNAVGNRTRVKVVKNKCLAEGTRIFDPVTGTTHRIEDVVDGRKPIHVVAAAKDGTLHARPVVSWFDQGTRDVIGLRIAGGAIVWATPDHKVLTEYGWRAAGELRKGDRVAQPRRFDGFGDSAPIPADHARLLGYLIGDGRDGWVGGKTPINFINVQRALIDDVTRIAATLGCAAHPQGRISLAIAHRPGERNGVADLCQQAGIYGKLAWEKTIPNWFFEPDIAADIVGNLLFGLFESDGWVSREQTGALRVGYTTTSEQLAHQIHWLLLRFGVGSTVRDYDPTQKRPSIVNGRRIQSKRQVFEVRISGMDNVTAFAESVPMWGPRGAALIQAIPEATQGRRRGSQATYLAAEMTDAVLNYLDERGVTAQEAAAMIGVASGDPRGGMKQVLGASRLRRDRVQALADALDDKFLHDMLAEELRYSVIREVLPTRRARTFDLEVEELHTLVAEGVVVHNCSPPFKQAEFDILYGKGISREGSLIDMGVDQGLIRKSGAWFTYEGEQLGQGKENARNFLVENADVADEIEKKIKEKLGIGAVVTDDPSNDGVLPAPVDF

[19] = test system: INS1; assay: beta cell apoptosis inhibitors, cytokine rescue, dose response, luminescence, retest (AID 449756); type: functional, cell-based; settings: Rattus norvegicus;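 also: cell death triggered by IL-1 beta plus TNF-alpha plus IFN-gamma mixture; protective hits raise ATP signal compared with cytokine alone wells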
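For CC50 in this document: cells exposed to compound for 72 hours before luminescence readout.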

## CCOc1cc(/C=C(/C#N)c2cccc(F)c2)cc(Cl)c1OCc1ccc(C(=O)O)cc1
[1]
  IC50: 36.1 µM (active)
[2]
  IC50: 5.08 µM (active)
[3]
  IC50: 34.6 µM (active)
[4]
  IC50: 2.25 µM (active)
[5]
  IC50: 46.7 µM (active)
[6]
  IC50: > 100 µM (inactive)
[7]
  IC50: > 100 µM (inactive)
[8]
  IC50: 21.8 µM (active)

## FC(F)(F)c1ccc(/N=c2\ssnc2Cl)cc1
[9]
  IC50: 32.7 µM (active)
[10]
  IC50: > 100 µM (inactive)

## CCOC(=O)C1CCN(C(=O)c2c(C)oc3c2C(=O)c2ccccc2C3=O)CC1
[11]
  EC50: > 120 µM (not active)
[12]
  EC50: 18.3 µM (active)
[13]
  EC50: 7.82 µM (active)
[14]
  EC50: 3.87 µM (active)
[15]
  EC50: 3.32 µM (active)
[16]
  CC50: 13.7 µM (active)
[17]
  AC50: 2.06 µM (active)
[18]
  EC50: 0.645 µM (active)
[19]
  AC50: 6.25 µM (active)

— ChEMBL document CHEMBL1201862, “PubChem BioAssay data set” (2004)
